From BindingDB's records for doi:10.1016/S0960-894X(00)80246-2 (1991)

Experiment: Binding potency against SP receptor in bovine caudate using [3H]- as radioligand

| Structure (SMILES) | IC50 |
| --- | --- |
| Clc1ccccc1CN[C@H]1C2CCN(CC2)[C@H]1C(c1ccccc1)c1ccccc1 | 56 nM |
| c1ccc(CN[C@H]2C3CCN(CC3)[C@H]2C(c2ccccc2)c2ccccc2)cc1 | 110 nM |
